# In US20240247024A1, “INHIBITORS OF NICOTINAMIDE N-METHYL TRANSFERASE (NNMT)” (UNIVERSITEIT LEIDEN, priority 2021, published 2024):
# Where “and” joins values, the source holds several entries; their conditions need not be identical. Identical values can stand only once. Like-named read-outs stand apart in the source and are kept apart here.
# Target: T1, NNMT (Homo sapiens, UniProt P40261)
# T1 sequence (P40261 1-264): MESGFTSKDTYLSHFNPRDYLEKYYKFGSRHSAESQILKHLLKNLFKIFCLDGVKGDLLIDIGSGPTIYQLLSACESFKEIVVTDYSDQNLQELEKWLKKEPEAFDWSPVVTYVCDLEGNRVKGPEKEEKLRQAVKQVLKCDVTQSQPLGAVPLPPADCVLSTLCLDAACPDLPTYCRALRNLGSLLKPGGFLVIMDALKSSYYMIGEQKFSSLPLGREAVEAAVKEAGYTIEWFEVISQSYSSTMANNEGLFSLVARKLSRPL
# Experiment: NNMT assay (HILIC-MS/MS, formation of MNA)
# Conditions: NA 200 μM, SAM 8.5 μM
# [1] = IC50 values (nM), Table 6, amino acid replacement, maximum concentration tested 25 μM
# [2] = IC50 values (μM), Table 6, amino acid replacement, maximum concentration tested 25 μM
# [3] = read-out: IC50 values, Table 1, alkene linked aromatics, maximum concentration tested 25 μM
# [4] = IC50 values (nM), Table 3, 1-carbon alkyl linkers, maximum concentration tested 25 μM
# [5] = IC50 values (μM), Table 3, 1-carbon alkyl linkers, maximum concentration tested 25 μM
# [6] = IC50 values (nM), Table 9, compounds CM035 and CM037
# [7] = IC50 values (μM), Table 9, compounds CM035 and CM037
# [8] = IC50 values (nM), Table 1, alkene linked aromatics, maximum concentration tested 25 μM
# [9] = IC50 values (μM), Table 1, alkene linked aromatics, maximum concentration tested 25 μM
smiles,measurement,setting,value
N#Cc1ccc(/C=C/CN(CCCNC(=O)CCl)C[C@H]2O[C@@H](n3cnc4c(N)ncnc43)[C@H](O)[C@@H]2O)cc1 [GYZ-608],IC50,[1],11900 nM
same,IC50,[2],11900 nM
N#Cc1ccc(/C=C/CN(CC[C@H](N)C(=O)O)C[C@H]2O[C@@H](n3cnc4c(N)ncnc43)[C@H](O)[C@@H]2O)cc1C(N)=O [GYZ-755],IC50,[3],29 nM and 28.7 nM
N#Cc1ccc(/C=C/CN(CCNC(=O)C(F)(F)F)C[C@H]2O[C@@H](n3cnc4c(N)ncnc43)[C@H](O)[C@@H]2O)cc1 [GYZ-693],IC50,[1],7770 nM
same,IC50,[2],7770 nM
CCNCCN(C/C=C/c1ccc(C#N)cc1)C[C@H]1O[C@@H](n2cnc3c(N)ncnc32)[C@H](O)[C@@H]1O [GYZ-761],IC50,[1],> 25000 nM
same,IC50,[2],> 25000 nM
Nc1ncnc2c1ncn2[C@@H]1O[C@H](CN(C/C=C/c2ccc(C(=O)O)cc2)CC[C@H](N)C(=O)O)[C@@H](O)[C@H]1O [GYZ-564],IC50,[3],> 25000 nM
Nc1ncnc2c1ncn2[C@@H]1O[C@H](CN(C/C=C/c2ccc(C(F)(F)F)cc2)CC[C@H](N)C(=O)O)[C@@H](O)[C@H]1O [GYZ-350],IC50,[3],1390 nM
Nc1ncnc2c1ncn2[C@@H]1O[C@H](CN(CC[C@H](N)C(=O)O)Cc2ccc(C(F)(F)F)cc2)[C@@H](O)[C@H]1O [GYZ-414],IC50,[4],6790 nM
same,IC50,[5],6790 nM
Nc1ncnc2c1ncn2[C@@H]1O[C@H](CN(CCCc2ccc([N+](=O)[O-])cc2)CC[C@H](N)C(=O)O)[C@@H](O)[C@H]1O [GYZ-447],IC50,"IC50 values (nM), Table 5, 3-carbon alkyl linkers",294 nM
same,IC50,"IC50 values (μM), Table 5, 3-carbon alkyl linkers",290 nM
N#Cc1ccc(/C=C/CN(CCNC(=O)C(F)(F)Br)C[C@H]2O[C@@H](n3cnc4c(N)ncnc43)[C@H](O)[C@@H]2O)cc1 [GYZ-706],IC50,[1],> 25000 nM
same,IC50,[2],> 25000 nM
C=CC(=O)CCCN(C/C=C/c1ccc(C#N)cc1)C[C@H]1O[C@@H](n2cnc3c(N)ncnc32)[C@H](O)[C@@H]1O [GYZ-704],IC50,"read-out: IC50 values, Table 6, amino acid replacement, maximum concentration tested 25 μM",538 nM
Nc1ncnc2c1ncn2[C@@H]1O[C@H](CN(C/C=C/c2c(Cl)cccc2Cl)CC[C@H](N)C(=O)O)[C@@H](O)[C@H]1O [GYZ-336],IC50,[3],> 25000 nM
C=CC(=O)NCCN(C/C=C/c1ccc(C#N)cc1)C[C@H]1O[C@@H](n2cnc3c(N)ncnc32)[C@H](O)[C@@H]1O [GYZ-604],IC50,[1],21000 nM
same,IC50,[2],21000 nM
CC(=O)N(C/C=C/c1ccc(C#N)cc1)C[C@H]1C[C@@H](n2ccc3c(Cl)ncnc32)[C@H](O)[C@@H]1O [CM035],IC50,[6],3580 nM
same,IC50,[7],3580 nM
Nc1ncnc2c1ncn2[C@@H]1O[C@H](CN(CC[C@H](N)C(=O)O)Cc2ccc(F)c([N+](=O)[O-])c2)[C@@H](O)[C@H]1O [GYZ-417],IC50,"read-out: IC50 values, Table 3, 1-carbon alkyl linkers, maximum concentration tested 25 μM",410 nM and 407 nM
N#Cc1ccc(/C=C/CN(C/C=C/c2ccc(S(=O)(=O)F)cc2)C[C@H]2O[C@@H](n3cnc4c(N)ncnc43)[C@H](O)[C@@H]2O)cc1 [GYZ-743],IC50,[1],7780 nM
same,IC50,[2],7780 nM
N#Cc1ccc(/C=C/CN(CCC[C@H](N)C(=O)O)C[C@H]2O[C@@H](n3cnc4c(N)ncnc43)[C@H](O)[C@@H]2O)cc1 [GYZ-485],IC50,[1],356 nM
Nc1ncnc2c1ncn2[C@@H]1O[C@H](CN(C/C=C/c2c(F)c(F)cc(F)c2F)CC[C@H](N)C(=O)O)[C@@H](O)[C@H]1O [MH612],IC50,[8],1810 nM
same,IC50,[9],1810 nM
N#Cc1ccc(/C=C/CN(CCCCc2ccccc2)C[C@H]2O[C@@H](n3cnc4c(N)ncnc43)[C@H](O)[C@@H]2O)cc1 [GYZ-756],IC50,[1],> 25000 nM
same,IC50,[2],> 25000 nM
N#Cc1ccc(/C=C/CN(CC(=O)CCl)C[C@H]2O[C@@H](n3cnc4c(N)ncnc43)[C@H](O)[C@@H]2O)cc1 [GYZ-702],IC50,[1],980 nM
same,IC50,[2],980 nM
N#CCC(=O)NCCN(C/C=C/c1ccc(C#N)cc1)C[C@H]1O[C@@H](n2cnc3c(N)ncnc32)[C@H](O)[C@@H]1O [GYZ-695],IC50,[1],931 nM
same,IC50,[2],931 nM
NC(=O)c1cc(/C=C/CN(CC[C@H](N)C(=O)O)C[C@H]2O[C@@H](n3cnc4c(N)ncnc43)[C@H](O)[C@@H]2O)ccc1Br [GYZ-739],IC50,[3],7 nM and 6.8 nM
Nc1ncnc2c1ncn2[C@@H]1O[C@H](CN(CC[C@H](N)C(=O)O)Cc2ccc(S(=O)(=O)F)cc2)[C@@H](O)[C@H]1O [GYZ-760],IC50,[4],5620 nM
same,IC50,[5],5620 nM
Nc1ncnc2c1ncn2[C@@H]1O[C@H](CN(CC[C@H](N)C(=O)O)Cc2cccc(F)c2)[C@@H](O)[C@H]1O [GYZ-422],IC50,[4],1240 nM
same,IC50,[5],1240 nM
N#Cc1c(F)cc(/C=C/CN(CC[C@H](N)C(=O)O)C[C@H]2O[C@@H](n3cnc4c(N)ncnc43)[C@H](O)[C@@H]2O)cc1F [GYZ-670],IC50,[3],2 nM and 1.99 nM
Nc1ncnc2c1ncn2[C@@H]1O[C@H](CN(C/C=C/c2cc(F)c(F)c(F)c2)CC[C@H](N)C(=O)O)[C@@H](O)[C@H]1O [MH611],IC50,[8],363 nM
same,IC50,[9],363 nM
Nc1ncnc2c1ncn2[C@@H]1O[C@H](CN(C/C=C/c2ccccc2C(F)(F)F)CC[C@H](N)C(=O)O)[C@@H](O)[C@H]1O [GYZ-326],IC50,[3],2850 nM
Nc1ncnc2c1ncn2[C@@H]1O[C@H](CN(C/C=C/c2cccc(B(O)O)c2)CC[C@H](N)C(=O)O)[C@@H](O)[C@H]1O [GYZ-746],IC50,[3],1660 nM
N#Cc1ccc(/C=C/CN(CC[C@H](N)C(=O)O)C[C@H]2O[C@@H](n3cnc4c(N)ncnc43)[C@H](O)[C@@H]2O)c(F)c1 [GYZ-674],IC50,[3],5 nM and 5.33 nM
Nc1ncnc2c1ncn2[C@@H]1O[C@H](CN(CC[C@H](N)C(=O)O)Cc2cccc([N+](=O)[O-])c2)[C@@H](O)[C@H]1O [GYZ-419],IC50,[4],320 nM
same,IC50,[5],320 nM
N#Cc1c(F)c(F)c(/C=C/CN(CC[C@H](N)C(=O)O)C[C@H]2O[C@@H](n3cnc4c(N)ncnc43)[C@H](O)[C@@H]2O)c(F)c1F [MH610],IC50,[8],7.14 nM
same,IC50,[9],7 nM
Nc1ncnc2c1ncn2[C@@H]1O[C@H](CN(C/C=C/c2ccc(B(O)O)cc2)CC[C@H](N)C(=O)O)[C@@H](O)[C@H]1O [GYZ-732],IC50,[3],> 25000 nM
Nc1ncnc2c1ncn2[C@@H]1O[C@H](CN(CC[C@H](N)C(=O)O)Cc2ccc([N+](=O)[O-])cc2)[C@@H](O)[C@H]1O [GYZ-420],IC50,[4],6610 nM
same,IC50,[5],6610 nM
Nc1ncnc2c1ncn2[C@@H]1O[C@H](CN(CC[C@H](N)C(=O)O)Cc2ccccc2[N+](=O)[O-])[C@@H](O)[C@H]1O [GYZ-425],IC50,[4],> 25000 nM
same,IC50,[5],> 25000 nM
C=CC(=O)N1CC(CN(C/C=C/c2ccc(C#N)cc2)C[C@H]2O[C@@H](n3cnc4c(N)ncnc43)[C@H](O)[C@@H]2O)C1 [GYZ-665],IC50,[1],4160 nM
same,IC50,[2],4160 nM
CC(=O)N(C/C=C/c1ccc(C#N)cc1)C[C@H]1C[C@@H](n2ccc3c(N)ncnc32)[C@H](O)[C@@H]1O [CM037],IC50,[6],264 nM
same,IC50,[7],260 nM
CCCCCN(C/C=C/c1ccc(C#N)cc1)C[C@H]1O[C@@H](n2cnc3c(N)ncnc32)[C@H](O)[C@@H]1O [GYZ-718],IC50,[1],> 25000 nM
same,IC50,[2],> 25000 nM
Nc1ncnc2c1ncn2[C@@H]1O[C@H](CN(C/C=C/c2cccc(C(F)(F)F)c2)CC[C@H](N)C(=O)O)[C@@H](O)[C@H]1O [GYZ-349],IC50,[3],164 nM
N#Cc1ccc(/C=C/CN(C/C=C/c2ccc(C#N)cc2)C[C@H]2O[C@@H](n3cnc4c(N)ncnc43)[C@H](O)[C@@H]2O)cc1 [GYZ-466],IC50,[1],> 25000 nM
same,IC50,[2],> 25000 nM
Nc1ncnc2c1ncn2[C@@H]1O[C@H](CN(C/C=C/c2c(F)c(F)c(F)c(F)c2F)CC[C@H](N)C(=O)O)[C@@H](O)[C@H]1O [MH609],IC50,[8],400 nM
same,IC50,[9],400 nM
Nc1ncnc2c1ncn2[C@@H]1O[C@H](CN(CC[C@H](N)C(=O)O)Cc2ccccc2C(F)(F)F)[C@@H](O)[C@H]1O [GYZ-415],IC50,[4],9700 nM
same,IC50,[5],9700 nM
N#Cc1ccc(/C=C/CN(CCS(=O)(=O)F)C[C@H]2O[C@@H](n3cnc4c(N)ncnc43)[C@H](O)[C@@H]2O)cc1 [GYZ-748],IC50,[1],> 25000 nM
same,IC50,[2],> 25000 nM
Nc1ncnc2c1ncn2[C@@H]1O[C@H](CN(CC[C@H](N)C(=O)O)Cc2cccc(C(F)(F)F)c2)[C@@H](O)[C@H]1O [GYZ-416],IC50,[4],6580 nM
same,IC50,[5],6580 nM
Nc1ncnc2c1ncn2[C@@H]1O[C@H](CN(CC[C@H](N)C(=O)O)Cc2ccccc2F)[C@@H](O)[C@H]1O [GYZ-421],IC50,[4],> 25000 nM
same,IC50,[5],> 25000 nM
N#Cc1ccc(/C=C/CN(CC[C@H](N)C(=O)O)C[C@H]2O[C@@H](n3cnc4c(N)ncnc43)[C@H](O)[C@@H]2O)cc1F [GYZ-658],IC50,[3],< 5 nM
N#Cc1ccc(/C=C/CN(CCNC(=O)C(F)(F)Cl)C[C@H]2O[C@@H](n3cnc4c(N)ncnc43)[C@H](O)[C@@H]2O)cc1 [GYZ-701],IC50,[1],> 25000 nM
same,IC50,[2],> 25000 nM
Nc1ncnc2c1ncn2[C@@H]1O[C@H](CN(C/C=C/c2ccc(S(=O)(=O)F)cc2)CC[C@H](N)C(=O)O)[C@@H](O)[C@H]1O [GYZ-736],IC50,[3],68 nM and 67.9 nM
Nc1ncnc2c1ncn2[C@@H]1O[C@H](CN(C/C=C/c2cccc(S(=O)(=O)F)c2)CC[C@H](N)C(=O)O)[C@@H](O)[C@H]1O [GYZ-764],IC50,[3],89 nM and 88.6 nM
